# According to paper PMC6637425 (ChemMedChem, 2019):
# Like-named read-outs stand apart in the source and are kept apart here.
# Tests used:
# BACE1 enzyme = BACE1 enzyme (Homo sapiens, UniProt P56817); experiment: BACE1 enzyme inhibition, Ki from kinetic data under tight-binding conditions; format: biochemical
# BACE2 enzyme = target: T1, BACE2 enzyme (Homo sapiens, UniProt Q9Y5Z0); experiment: BACE2 enzyme inhibition, Ki from kinetic data under tight-binding conditions; format: biochemical; conditions: for selectivity for BACE2 over BACE1: ratio of Ki values
# T1 sequence (Q9Y5Z0 63-518): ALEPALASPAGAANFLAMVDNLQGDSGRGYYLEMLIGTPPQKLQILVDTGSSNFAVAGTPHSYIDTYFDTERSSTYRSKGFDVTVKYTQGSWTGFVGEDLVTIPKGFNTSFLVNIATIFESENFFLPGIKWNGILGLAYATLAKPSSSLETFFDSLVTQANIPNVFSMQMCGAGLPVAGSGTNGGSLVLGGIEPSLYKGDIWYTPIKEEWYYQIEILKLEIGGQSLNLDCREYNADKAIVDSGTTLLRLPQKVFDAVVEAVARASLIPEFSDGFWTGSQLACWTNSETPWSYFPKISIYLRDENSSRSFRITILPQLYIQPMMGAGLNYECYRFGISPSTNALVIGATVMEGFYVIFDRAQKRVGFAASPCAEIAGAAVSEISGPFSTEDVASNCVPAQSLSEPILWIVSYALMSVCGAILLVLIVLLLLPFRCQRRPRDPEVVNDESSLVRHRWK
# [1] = Ki (nM) BACE1, Table 1, new inhibitors 2f-j
# [2] = Ki (nM) BACE2, Table 1, new inhibitors 2f-j
# [3] = read-out: Ki (nM) BACE1, Table 2
# [4] = read-out: Ki (nM) BACE2, Table 2
# BACE1 enzyme, sequence (P56817 46-501): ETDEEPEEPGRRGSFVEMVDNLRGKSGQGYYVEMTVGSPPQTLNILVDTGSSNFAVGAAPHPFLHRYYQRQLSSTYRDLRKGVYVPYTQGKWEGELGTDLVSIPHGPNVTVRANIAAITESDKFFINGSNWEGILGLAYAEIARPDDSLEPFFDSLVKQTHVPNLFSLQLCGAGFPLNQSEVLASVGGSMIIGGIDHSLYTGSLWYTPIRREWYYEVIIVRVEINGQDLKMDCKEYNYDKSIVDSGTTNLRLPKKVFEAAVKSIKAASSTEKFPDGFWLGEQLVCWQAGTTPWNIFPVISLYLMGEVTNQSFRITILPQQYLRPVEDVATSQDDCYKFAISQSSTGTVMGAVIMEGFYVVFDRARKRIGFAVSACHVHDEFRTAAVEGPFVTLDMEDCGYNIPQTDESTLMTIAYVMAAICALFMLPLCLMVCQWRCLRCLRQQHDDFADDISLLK
Compound,Ki (BACE1 enzyme; [1]) [nM],Ki (BACE2 enzyme; [2]) [nM],further results
"COc1cccc(CNC[C@@H](O)[C@H](Cc2ccccc2)NC(=O)c2cc(C)cc(C(=O)N(C)C(C)c3nc(C)co3)c2)c1 (mixture of isomers) [inhibitor 3o, N^1-((2S,3R)-3-Hydroxy-4-((3-methoxybenzyl)ammo)-1-phenylbutan-2-yl)-N^3,5-dimethyl-N^3-(1-(4-methyloxazol-2-yl)ethyl)isophthalamide]",,,"Ki (BACE1 enzyme; read-out: Ki (nM) BACE1, Table 3): 767 nM; selectivity for BACE2 over BACE1 (BACE2 enzyme): no appreciable selectivity; Ki (BACE2 enzyme; read-out: Ki (nM) BACE2, Table 3): 801 nM"
"COC[C@H]1CCCN1C(=O)c1cccc(C(=O)N[C@@H](Cc2ccccc2)[C@H](O)CN[C@H](C(=O)NCC(C)C)[C@H](C)O)c1 [inhibitor 2f, N-((2S,3R)-3-Hydroxy-4-(((2S,3S)-3-hydroxy-1-(isobutylamino)-1-oxobutan-2-yl)amino)-1-phenylbutan-2-yl)-3-((R)-2-(methoxymethyl)pyrrolidine-1-carbonyl)benzamide]",3020,1370,
"CCC[C@H](O)[C@H](NC[C@@H](O)[C@H](Cc1ccccc1)NC(=O)c1cc(C)cc(C(=O)N2CCC[C@@H]2COC)c1)C(=O)NCC(C)C [inhibitor 2g, N-((2S,3R)-3-Hydroxy-4-(((2S,3S)-3-hydroxy-1-(isobutylamino)-1-oxohexan-2-yl)amino)-1-phenylbutan-2-yl)-3-((R)-2-(methoxymethyl)pyrrolidine-1-carbonyl)-5-methylbenzamide]",6.6,27.9,
"Cc1cc(C(=O)N[C@@H](Cc2ccccc2)[C@H](O)CN[C@H](C(=O)NCC(C)C)[C@H](C)O)cc(C(=O)N(C)Cc2nc(C)cs2)c1 [inhibitor 2h, N^1-((2S,3R)-3-Hydroxy-4-(((2S,3S)-3-hydroxy-1-(isobutylamino)-1-oxobutan-2-yl)amino)-1-phenylbutan-2-yl)-N^3,5-dimethyl-N^3-((4-methylthiazol-2-yl)methyl)isophthalamide]",176,96.9,selectivity for BACE2 over BACE1 (BACE2 enzyme): 2 fold
"CCC[C@H](O)[C@H](NC[C@@H](O)[C@H](Cc1ccccc1)NC(=O)c1cccc(C(=O)N(C)Cc2nc(C)cs2)c1)C(=O)NCC(C)C [inhibitor 2i, N^1-((2S,3R)-3-Hydroxy-4-(((2S,3S)-3-hydroxy-1-(isobutylamino)-1-oxohexan-2-yl)amino)-1-phenylbutan-2-yl)-N^3-methyl-N^3-((4-methylthiazol-2-yl)methyl)isophthalamide]",33.1,51.1,
"CCC[C@H](O)[C@H](NC[C@@H](O)[C@H](Cc1ccccc1)NC(=O)c1cc(C)cc(C(=O)N(C)Cc2nc(C)cs2)c1)C(=O)NCC(C)C [inhibitor 2j, N^1-((2S,3R)-3-Hydroxy-4-(((2S,3S)-3-hydroxy-1-(isobutylamino)-1-oxohexan-2-yl)amino)-1-phenylbutan-2-yl)-N^3,5-dimethyl-N^3-((4-methylthiazol-2-yl)methyl)isophthalamide]",34.2,25.3,
"COc1cccc([C@@H](NC[C@@H](O)[C@H](Cc2ccccc2)NC(=O)c2cc(C(=O)N[C@H](C)c3ccccc3)cc(N(C)S(C)(=O)=O)c2)[C@H](C)O)c1 [inhibitor 3a, N^1-((2S,3R)-3-Hydroxy-4-(((1R,2S)-2-hydroxy-1-(3-methoxyphenyl)propyl)ammo)-1-phenylbutan-2-yl)-5-(N-methylmethylsulfonamido)-N^3-((R)-1-phenylethyl)isophthalamide]",,,Ki (BACE1 enzyme; read-out: BACE1 Ki): 205 nM; Ki (BACE1 enzyme; [3]): 205 nM; Ki (BACE2 enzyme; read-out: BACE2 Ki): 731 nM; Ki (BACE2 enzyme; [4]): 731 nM
"COc1cccc([C@@H](NC[C@@H](O)[C@H](Cc2ccccc2)NC(=O)c2cc(C(=O)N(C)[C@H](C)c3ccccc3)cc(N(C)S(C)(=O)=O)c2)[C@H](C)O)c1 [inhibitor 3b, N^1-((2S,3R)-3-Hydroxy-4-(((1R,2S)-2-hydroxy-1-(3-methoxyphenyl)propyl)ammo)-1-phenylbutan-2-yl)-N^3-methyl-5-(N-methylmethylsulfonamido)-N^3-((R)-1-phenylethyl)isophthalamide]",,,Ki (BACE1 enzyme; [3]): 4850 nM; Ki (BACE2 enzyme; [4]): 479 nM
